Reference: US20260191793A1, “HBV SPECIFIC EXOSOMES AND USES THEREOF” (priority 2022, published 2026)

Test system: HBV replication in HepG2/2.2.15 cells
Test: Antiviral efficiency of synthetic gRNA/Cas9 RNPs in HepG2/2.2.15 cells (HBsAg/HBeAg ELISA, HBV mRNA and HBV DNA real-time PCR)
Format: cell-based, Hepatitis B virus (HBV)
Design: reduction in HBsAg expression / reduction of HBV mRNA expression: concentration or dose not given beside the values
Conditions: for reduction of HBV mRNA expression: HepG2/2.2.15 cells, real-time PCR, vs gRNAc; for reduction in HBsAg expression: HepG2/2.2.15 supernatant, 3 days after nucleofection, ELISA, vs scrambled gRNAc; for antiviral efficacy among the 9 gRNAs tested: HepG2.2.15 cells
Description: The HepG2.2.15 Human Hepatoblastoma cell line (Cat #SCC249, MilliporeSigma, Burlington, MA) is a traditional HBV cellular model that is widely used for studying HBV infection and drug development. HepG2.2.15 cells display constitutive HBV RNA transcription and DNA replication, but a lesser detection of cccDNA by Southern blot and PCR detection. The HepG2/2.2.15 cells were cultured in DMEM (Cat #MT10013CV, Fisher Scientific, Waltham, MA) supplemented with 10% Fetal bovine serum, penicillin, and streptomycin (50 ug/ml each; Fisher Scientific) and maintained at 37° C. and 5% CO2 atmosphere. The Amaxa Cell Line Nucleofector Kit V (Lonza VCA-1003) was used to deliver gRNA/Cas9 into HepG2/2.2.15 cells stably expressing HBV. For each transfection, 160 μM gRNA and 160 μM tracrRNA were first incubated at 37° C. for 30 minutes, followed by adding 80 μM Cas9 protein and incubating at 37° C. for 15 minutes. Approximately 40 μM of the gRNA/Cas9 complex was transfected into HepG2/2.2.15 cells (5×10^5) following the manufacturer's instructions. After 72 hours, the culture supernatants were harvested to measure HBV antigens by ELISA, and the cell pellets were used to determine HBV DNA or mRNA levels by real-time-PCR.
The levels of HBsAg and HBeAg in the supernatants of cell cultures were determined by ELISA (Cat #KA0286 and NBP2-600029, Novus Biologicals, Littleton, CO) according to the manufacturer's protocol. The optical density of antigen levels was measured at 450 nm using a microplate spectrophotometer. The samples were run in triplicate, and the experiments were repeated at least three times.
Total RNA was extracted from the cell pellets by the RNeasy Mini kit (Cat #74104, QIAGEN, Germantown, MD), and 1 μg RNA was converted to cDNA using the Applied Biosystems High-Capacity cDNA Reverse Transcription Kit (Cat #43-688-14, ThermoFisher, Waltham, MA). Quantitative real-time PCR (real-time-qPCR) was performed using iTaq Universal SYBR Green Supermix (Cat #1725124, Bio-Rad, Hercules, CA). The PCR primers were: HBV mRNA forward, 5′-[…]-3′ (SEQ ID NO: 52), reverse, 5′-[…]-3′ (SEQ ID NO: 53); HBV pgRNA forward 5′-[…]-3′ (SEQ ID NO: 54), reverse 5′-[…]-3′ (SEQ ID NO: 55); and GAPDH forward 5′-[…]-3′ (SEQ ID NO: 56), reverse 5′-[…]-3′ (SEQ ID NO: 57). The gene expression levels were determined by the […] method and values were normalized to GAPDH expression as an internal control.
Total and protein-free HBV DNAs were extracted from whole cell lysate using the Hirt DNA method according to a previously published protocol. For HBV cccDNA analysis, the protein-free DNA was treated with 10 units of T5 exonuclease (NEB) at 37° C. for 30 min, followed by 95° C. for 5 min, and diluted 4-fold with nuclease-free water. Next, the cccDNA was cleaned with a DNA clean and concentrator kit (ZYMO Research, Irvine, CA) and used for PCR. HBV total DNA and cccDNA were analyzed by real-time PCR using a TaqMan PCR assay. The primers and probe used to amplify HBV total DNA were: HBV total DNA forward: 5′-[…]-3′ (SEQ ID NO: 58), reverse 5′-[…]-3′ (SEQ ID NO: 59), and internal probe: 5′-FAM-[…]-TAMRA-3′ (SEQ ID NO: 60). The primers and probe used to amplify HBV cccDNA (Genotype D, subtype ayw) were: forward: 5′-[…]-3′ (SEQ ID NO: 61), reverse 5′-[…]-3′ (SEQ ID NO: 62), and internal probe 5′-FAM-[…]-TAMRA-3′ (SEQ ID NO: 63). The PCR reactions were performed in 20 μl volumes and contained 2 μl DNA. The PCR conditions were: 95° C. for 10 min, followed by 45 cycles of 95° C. for 15 s and 64° C. for 30 s. The DNA levels were determined by the […] method and values were normalized to the control group.
Because the hepatoma cell line HepG2/2.2.15 is a traditional HBV cellular model used to test the efficacy and cytotoxicity of anti-HBV drugs, the synthetic gRNA/Cas9 RNPs were tested for their antiviral efficiency in HepG2/2.2.15 cells. […]

Sequence	reduction of HBV mRNA expression	reduction in HBsAg expression [%]	antiviral efficacy among the 9 gRNAs tested
GGTCTCCATGCGACGTGCAGNGG [gRNA9]	~ 50%	50	most specific and potent antiviral efficacy
GTTATCGCTGGATGTGTCTGNGG (guide GUUAUCGCUGGAUGUGUCUGNGG; complexed with Cas9 protein, chemistry not fully specified) [gRNA5, tested as synthetic gRNA/Cas9 RNP]	~ 50%	50	most specific and potent antiviral efficacy
